Test results as given in patent US10689354B2, “Aminoazole derivative” (Teijin Pharma Limited, priority 2015, dated 2020).

Key:
[1] = molecular target: T1, androgen receptor (AR-LBD) (Rattus norvegicus, UniProt P15207); assay: Evaluation of androgen receptor affinity (PolarScreen Androgen Receptor Competitor Assay Kit, Red; fluorescence polarization); settings: 22° C. for 5 hours, relative to binding rate of 1 μM DHT, read-out: AR affinity (pEC50) (converted)
T1 construct: 5 μL of 2×AR-LBD/Fluoromone AL Red Complex contained in the kit; purchased Invitrogen
T1 sequence (P15207 651-882 limits assumed): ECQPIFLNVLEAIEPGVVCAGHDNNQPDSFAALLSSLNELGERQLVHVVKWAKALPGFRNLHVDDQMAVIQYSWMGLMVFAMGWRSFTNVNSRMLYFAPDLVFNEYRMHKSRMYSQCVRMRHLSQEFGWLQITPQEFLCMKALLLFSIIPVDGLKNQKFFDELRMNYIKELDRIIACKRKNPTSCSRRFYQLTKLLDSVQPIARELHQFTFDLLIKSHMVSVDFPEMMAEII
How it was run: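 Duplicate wells; compound plus AR-LBD tracer complex incubated 22° C for 5 h, then FP measured. Effect compared with 1 μM DHT; 50%-effect concentration expressed as pEC50.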

human androgen receptor = molecular target: T2, human androgen receptor (Homo sapiens, UniProt P10275); assay: Reporter assay of an androgen receptor responsive sequence (luciferase, transiently transfected HEK293 cells); assay type: cell-based; settings: 24 hours incubation, relative to activity of 100 nM DHT, read-out: AR transcriptive activity (pEC50) (converted)
T2 construct: expressed in transfected cells; host or cells: HEK293
T2 sequence (P10275 1-920): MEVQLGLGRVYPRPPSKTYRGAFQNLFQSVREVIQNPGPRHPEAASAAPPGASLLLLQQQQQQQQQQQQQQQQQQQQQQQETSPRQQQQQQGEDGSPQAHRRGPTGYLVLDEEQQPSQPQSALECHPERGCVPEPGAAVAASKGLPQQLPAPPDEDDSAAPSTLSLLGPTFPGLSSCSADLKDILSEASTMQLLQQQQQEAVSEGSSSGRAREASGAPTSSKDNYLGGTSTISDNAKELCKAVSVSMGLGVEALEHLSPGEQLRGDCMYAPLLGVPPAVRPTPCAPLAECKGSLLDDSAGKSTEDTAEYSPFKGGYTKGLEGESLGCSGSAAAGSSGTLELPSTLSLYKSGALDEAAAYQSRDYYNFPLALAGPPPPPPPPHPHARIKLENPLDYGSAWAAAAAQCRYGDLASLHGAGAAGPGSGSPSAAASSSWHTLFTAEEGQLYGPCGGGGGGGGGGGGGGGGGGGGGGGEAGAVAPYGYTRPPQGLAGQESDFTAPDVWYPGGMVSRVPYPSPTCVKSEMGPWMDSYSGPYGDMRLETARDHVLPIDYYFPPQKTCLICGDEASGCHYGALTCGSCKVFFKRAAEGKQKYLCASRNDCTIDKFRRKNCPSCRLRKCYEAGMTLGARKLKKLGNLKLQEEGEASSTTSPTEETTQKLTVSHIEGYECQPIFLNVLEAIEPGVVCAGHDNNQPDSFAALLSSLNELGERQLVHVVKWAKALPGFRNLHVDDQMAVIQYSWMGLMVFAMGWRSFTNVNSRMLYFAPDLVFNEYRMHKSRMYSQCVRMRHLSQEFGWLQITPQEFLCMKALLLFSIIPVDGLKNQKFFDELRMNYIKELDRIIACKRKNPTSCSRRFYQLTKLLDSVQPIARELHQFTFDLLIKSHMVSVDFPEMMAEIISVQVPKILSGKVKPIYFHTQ
How it was run: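 Agonism scored as pEC50, fitted by 4-parameter curve against the response to 100 nM DHT, from dual-luciferase readout after 24 h compound treatment. Cells were HEK293 co-transfected (3 h) with human AR expression vector, androgen-responsive firefly reporter and Renilla control, in charcoal-stripped serum.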

EC50 [1] | EC50 (human androgen receptor) | SMILES
0.1 µM | 0.2 µM | Cc1sc(N(Cc2ncc(Cl)cc2F)c2ccc(C#N)cc2)nc1C(=O)NS(C)(=O)=O [Example 168, 2-[N-[(5-chloro-3-fluoro-2-pyridyl)methyl]-4-cyano-anilino]-5-methyl-N-methylsulfonyl-thiazole-4-carboxamide]
0.0398 µM | 0.794 µM | COc1cccc(CN(CCc2ccc(Cl)cc2)c2nc(C(=O)NS(C)(=O)=O)c(C)s2)n1 [Compound 502, 2-[2-(4-chlorophenyl)ethyl-[(6-methoxy-2-pyridyl)methyl]amino]-5-methyl-N-methylsulfonyl-thiazole-4-carboxamide]
0.0316 µM | 0.0251 µM | Cc1sc(N(Cc2ccc(Cl)c(F)c2)c2ccc(C#N)cc2)nc1C(=O)NS(C)(=O)=O [Compound 116, 2-[N-[(4-chloro-3-fluoro-phenyl)methyl]-4-cyano-anilino]-5-methyl-N-methylsulfonyl-thiazole-4-carboxamide]
0.0631 µM | 0.631 µM | Cc1nc(CN(CCc2ccc(Cl)cc2)c2nc(C(=O)NS(C)(=O)=O)c(C)s2)cs1 [Compound 504, 2-[2-(4-chlorophenyl)ethyl-[(2-methylthiazol-4-yl)methyl]amino]-5-methyl-N-methylsulfonyl-thiazole-4-carboxamide]
0.0501 µM | 0.794 µM | Cc1sc(N(Cc2cccc3ccccc23)c2ccc(C#N)cc2)nc1C(=O)NS(C)(=O)=O [Compound 68, 2-[4-cyano-N-(1-naphthylmethyl)anilino]-5-methyl-N-methylsulfonyl-thiazole-4-carboxamide]
0.1 µM | 0.501 µM | Cc1sc(N(Cc2cc(F)ccc2Cl)c2ccc(C#N)cc2)nc1C(=O)NS(C)(=O)=O [Compound 108, 2-[N-[(2-chloro-5-fluoro-phenyl)methyl]-4-cyano-anilino]-5-methyl-N-methylsulfonyl-thiazole-4-carboxamide]
0.0251 µM | > 10 µM | Cc1sc(N(CCc2ccc(OC(F)(F)F)cc2)Cc2ccc(C#N)cc2)nc1C(=O)NS(C)(=O)=O [Compound 506, 2-[(4-cyanophenyl)methyl-[2-[4-(trifluoromethoxy)phenyl]ethyl]amino]-5-methyl-N-methylsulfonyl-thiazole-4-carboxamide]
0.251 µM | 2.51 µM | CCCCN(c1ccc(C#N)cc1)c1nc(C(=O)NS(C)(=O)=O)c(C)s1 [Compound 64, 2-(N-butyl-4-cyano-anilino)-5-methyl-N-methylsulfonyl-thiazole-4-carboxamide]
0.0316 µM | 1 µM | Cc1sc(N(Cc2cnc(-c3ccc(F)cc3)s2)c2ccc(C#N)cc2)nc1C(=O)NS(C)(=O)=O [Compound 494, 2-[4-cyano-N-[[2-(4-fluorophenyl)thiazol-5-yl]methyl]anilino]-5-methyl-N-methylsulfonyl-thiazole-4-carboxamide]
0.0398 µM | 0.158 µM | Cc1oc(N(CCc2ccc(Cl)cc2)Cc2ccc3ncsc3c2)nc1C(=O)NS(C)(=O)=O [Compound 545, 2-[1,3-benzothiazol-6-ylmethyl-[2-(4-chlorophenyl)ethyl]amino]-5-methyl-N-methylsulfonyl-oxazole-4-carboxamide]
0.1 µM | 1.26 µM | Cc1sc(N(CCc2ccc(OC(F)(F)F)cc2)Cc2ccc(Cl)cn2)nc1C(=O)NS(C)(=O)=O [Compound 512, 2-[(5-chloro-2-pyridyl)methyl-[2-[4-(trifluoromethoxy)phenyl]ethyl]amino]-5-methyl-N-methylsulfonyl-thiazole-4-carboxamide]
0.1 µM | 1 µM | Cc1sc(N(CCc2ccccc2)Cc2ccccc2)nc1C(=O)NS(C)(=O)=O [Example 294, 2-[benzyl(2-phenylethyl)amino]-5-methyl-N-methylsulfonyl-thiazole-4-carboxamide]
0.158 µM | 0.794 µM | Cc1sc(N(Cc2ccc(-c3ccccc3F)nc2)c2ccc(C#N)cc2)nc1C(=O)NS(C)(=O)=O [Compound 591, 2-[4-cyano-N-[[6-(2-fluorophenyl)-3-pyridyl]methyl]anilino]-5-methyl-N-methylsulfonyl-thiazole-4-carboxamide]
0.0794 µM | > 10 µM | CS(=O)(=O)NC(=O)c1nc(N(Cc2ccccc2)c2ccc(C#N)cc2)sc1C1CC1 [Compound 660, 2-(N-benzyl-4-cyano-anilino)-5-cyclopropyl-N-methylsulfonyl-thiazole-4-carboxamide]
0.1 µM | > 10 µM | CC(C)c1sc(N(Cc2ccccc2)c2ccc(C#N)cc2)nc1C(=O)NS(C)(=O)=O [Compound 600, 2-(N-benzyl-4-cyano-anilino)-5-isopropyl-N-methylsulfonyl-thiazole-4-carboxamide]
> 2 µM | > 10 µM | Cc1sc(N(Cc2ccc(Cl)cc2)Cc2csc3cc(C(F)(F)F)ccc23)nc1C(=O)NS(C)(=O)=O [Compound 677, 2-[(4-chlorophenyl)methyl-[[6-(trifluoromethyl)benzothiophen-3-yl]methyl]amino]-5-methyl-N-methylsulfonyl-thiazole-4-carboxamide]
0.0631 µM | 3.16 µM | Cc1sc(N(Cc2ccccc2)c2ccc(OC(F)(F)F)cc2)nc1C(=O)NS(C)(=O)=O [Compound 34, 2-[N-benzyl-4-(trifluoromethoxy)anilino]-5-methyl-N-methylsulfonyl-thiazole-4-carboxamide]
0.501 µM | 3.16 µM | Cc1sc(N(Cc2ccccc2)c2ccc(-n3cncn3)cc2)nc1C(=O)NS(C)(=O)=O [Compound 61, 2-[N-benzyl-4-(1,2,4-triazol-1-yl)anilino]-5-methyl-N-methylsulfonyl-thiazole-4-carboxamide]
0.0501 µM | 0.316 µM | Cc1sc(N(CCc2ccc(Cl)cc2)Cc2cccc(OC(F)(F)F)c2)nc1C(=O)NS(C)(=O)=O [Compound 145, 2-[2-(4-chlorophenyl)ethyl-[[3-(trifluoromethoxy)phenyl]methyl]amino]-5-methyl-N-methylsulfonyl-thiazole-4-carboxamide]
0.0501 µM | 0.158 µM | Cc1sc(N(CCc2ccc(C#N)cc2)Cc2ccccc2)nc1C(=O)NS(C)(=O)=O [Example 301, 2-[benzyl-[2-(4-cyanophenyl)ethyl]amino]-5-methyl-N-methylsulfonyl-thiazole-4-carboxamide]
0.0251 µM | 1 µM | COCCCS(=O)(=O)NC(=O)c1nc(N(CCc2ccc(C#N)cc2)Cc2ccc(OC(F)(F)F)cc2)sc1C [Compound 740, 2-[2-(4-cyanophenyl)ethyl-[[4-(trifluoromethoxy)phenyl]methyl]amino]-N-(3-methoxypropylsulfonyl)-5-methyl-thiazole-4-carboxamide]
0.501 µM | 1 µM | Cc1sc(N(Cc2ncc(F)cc2F)c2ccc(C#N)cc2)nc1C(=O)NS(C)(=O)=O [Compound 527, 2-[4-cyano-N-[(3,5-difluoro-2-pyridyl)methyl]anilino]-5-methyl-N-methylsulfonyl-thiazole-4-carboxamide]
0.0398 µM | 0.794 µM | CCc1oc(N(Cc2cccc(Cl)c2)c2ccc(C#N)cc2)nc1C(=O)NS(C)(=O)=O [Compound 631, 2-[N-[(3-chlorophenyl)methyl]-4-cyano-anilino]-5-ethyl-N-methylsulfonyl-oxazole-4-carboxamide]

SMILES | EC50 [1] | EC50 (human androgen receptor)
Cc1sc(N(Cc2ccc(Br)nc2)c2ccc(C#N)cc2)nc1C(=O)NS(C)(=O)=O [Compound 496, 2-[N-[(6-bromo-3-pyridyl)methyl]-4-cyano-anilino]-5-methyl-N-methylsulfonyl-thiazole-4-carboxamide] | 0.126 µM | 0.158 µM
